The text below walks through data of ChEMBL document CHEMBL4382204 (Eur J Med Chem, 2018).

Some results are limits rather than exact numbers.

Data set [1] in a line: Antiproliferative activity in mouse BAF3 cells after 72 hrs by CCK8 assay. The class given is cell-based. A general note: Formazan colour is commonly taken as a measure of viable cells.
Data set [2] addresses Bcr/Abl fusion protein (Homo sapiens) (UniProt P00519+P11274). The note with it: BaF3.
Description: Inhibition of wild type BCR/ABL (unknown origin) transfected in mouse BAF3 cells assessed as growth inhibition after 72 hrs by CCK8 assay
Data set [3] deals with Bcr/Abl fusion protein (Homo sapiens), P00519+P11274 [T315I]. The note with it: BaF3.
The next data set has as its system K562. In words: Antiproliferative activity in human K562 cells after 72 hrs by CCK8 assay. The class given is functional. The note with it: K562, 72 h.
The test system of the next data set is KU812 cell line. Put plainly: Antiproliferative activity in human KU812 cells after 72 hrs by CCK8 assay. The note with it: KU812, 72 h. The class given is functional.
A further data set relates to MEG-01. Put plainly: Antiproliferative activity in human MEG01 cells after 72 hrs by CCK8 assay. The class given is functional. The note with it: MEG-01, 72 h.
A further data set concerns MEC1. Put plainly: Antiproliferative activity in human MEC1 cells after 72 hrs by CCK8 assay. The class given is functional. Particulars: MEC1, 72 h.
In another data set the test system is HL-60. In words: Antiproliferative activity in human HL60 cells after 72 hrs by CCK8 assay. The class given is functional. The note with it: HL-60, 72 h.
The next data set relates to OCI-AML2. In words: Antiproliferative activity in human OCI-AML2 cells after 72 hrs by CCK8 assay. Type of data set: functional. Particulars: OCI-AML2, 72 h.
A further data set concerns U-937. In words: Antiproliferative activity in human U937 cells after 72 hrs by CCK8 assay. The class given is functional. Particulars: U-937, 72 h.
Data set [4] is described as follows: Antiproliferative activity in CHO cells after 72 hrs by CCK8 assay. Type of data set: cell-based, Cricetulus griseus. Particulars: chinese hamster.
For the next data set, the system named is BaF3. In words: Antitumor activity against mouse BAF3 cells expressing BCR/ABL T315I mutant allografted in nu/nu mouse assessed as tumor weight at 100 mg/kg, po administered via gavage measured for 14 days (reference value: 2.78 g). The class given is functional.
Data set [5] can be described thus: Selectivity ratio of GI50 for mouse BAF3 cells to GI50 for BCR/ABL T315I mutant (unknown origin) transfected in mouse BAF3 cells.
Data set [6] can be described thus: Selectivity ratio of GI50 for mouse BAF3 cells to GI50 for wild type BCR/ABL (unknown origin) transfected in mouse BAF3 cells.

The term GI50 denotes the concentration giving 50% growth inhibition. Low readings indicate greater sensitivity of the cells, high ones lower sensitivity of the cells.

Sequence of Bcr/Abl fusion protein (Homo sapiens) (P00519 whole entry, looked up, the tested form may be a part): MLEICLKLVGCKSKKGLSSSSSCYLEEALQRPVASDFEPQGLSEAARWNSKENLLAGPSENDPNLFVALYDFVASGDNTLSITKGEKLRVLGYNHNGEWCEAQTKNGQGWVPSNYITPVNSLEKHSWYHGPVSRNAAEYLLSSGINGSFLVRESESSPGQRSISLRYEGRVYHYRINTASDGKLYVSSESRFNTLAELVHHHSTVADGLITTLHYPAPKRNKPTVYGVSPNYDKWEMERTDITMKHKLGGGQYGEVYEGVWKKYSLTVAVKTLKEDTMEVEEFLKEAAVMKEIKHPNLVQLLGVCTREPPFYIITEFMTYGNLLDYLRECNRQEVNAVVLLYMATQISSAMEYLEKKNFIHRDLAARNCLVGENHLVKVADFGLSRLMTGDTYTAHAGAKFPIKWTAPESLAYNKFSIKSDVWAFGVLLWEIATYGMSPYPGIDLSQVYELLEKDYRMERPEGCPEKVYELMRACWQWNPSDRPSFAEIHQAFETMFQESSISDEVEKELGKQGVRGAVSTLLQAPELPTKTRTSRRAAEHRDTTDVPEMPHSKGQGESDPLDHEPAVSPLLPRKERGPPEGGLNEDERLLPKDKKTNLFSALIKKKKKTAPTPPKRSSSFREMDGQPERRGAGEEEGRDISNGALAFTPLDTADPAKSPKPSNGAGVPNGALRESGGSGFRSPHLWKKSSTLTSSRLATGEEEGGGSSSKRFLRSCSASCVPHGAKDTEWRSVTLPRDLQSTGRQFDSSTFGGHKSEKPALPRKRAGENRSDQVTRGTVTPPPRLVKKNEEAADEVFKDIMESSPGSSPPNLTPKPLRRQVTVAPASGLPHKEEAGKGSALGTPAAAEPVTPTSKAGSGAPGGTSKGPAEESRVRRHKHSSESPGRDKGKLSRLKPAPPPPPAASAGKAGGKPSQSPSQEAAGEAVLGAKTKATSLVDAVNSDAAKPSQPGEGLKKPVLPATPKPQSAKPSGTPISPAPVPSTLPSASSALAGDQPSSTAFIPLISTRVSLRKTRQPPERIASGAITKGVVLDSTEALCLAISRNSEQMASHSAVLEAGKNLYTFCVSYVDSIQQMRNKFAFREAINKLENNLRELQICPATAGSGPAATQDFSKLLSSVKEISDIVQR
Sequence of Bcr/Abl fusion protein (Homo sapiens) (P11274 whole entry, looked up, the tested form may be a part): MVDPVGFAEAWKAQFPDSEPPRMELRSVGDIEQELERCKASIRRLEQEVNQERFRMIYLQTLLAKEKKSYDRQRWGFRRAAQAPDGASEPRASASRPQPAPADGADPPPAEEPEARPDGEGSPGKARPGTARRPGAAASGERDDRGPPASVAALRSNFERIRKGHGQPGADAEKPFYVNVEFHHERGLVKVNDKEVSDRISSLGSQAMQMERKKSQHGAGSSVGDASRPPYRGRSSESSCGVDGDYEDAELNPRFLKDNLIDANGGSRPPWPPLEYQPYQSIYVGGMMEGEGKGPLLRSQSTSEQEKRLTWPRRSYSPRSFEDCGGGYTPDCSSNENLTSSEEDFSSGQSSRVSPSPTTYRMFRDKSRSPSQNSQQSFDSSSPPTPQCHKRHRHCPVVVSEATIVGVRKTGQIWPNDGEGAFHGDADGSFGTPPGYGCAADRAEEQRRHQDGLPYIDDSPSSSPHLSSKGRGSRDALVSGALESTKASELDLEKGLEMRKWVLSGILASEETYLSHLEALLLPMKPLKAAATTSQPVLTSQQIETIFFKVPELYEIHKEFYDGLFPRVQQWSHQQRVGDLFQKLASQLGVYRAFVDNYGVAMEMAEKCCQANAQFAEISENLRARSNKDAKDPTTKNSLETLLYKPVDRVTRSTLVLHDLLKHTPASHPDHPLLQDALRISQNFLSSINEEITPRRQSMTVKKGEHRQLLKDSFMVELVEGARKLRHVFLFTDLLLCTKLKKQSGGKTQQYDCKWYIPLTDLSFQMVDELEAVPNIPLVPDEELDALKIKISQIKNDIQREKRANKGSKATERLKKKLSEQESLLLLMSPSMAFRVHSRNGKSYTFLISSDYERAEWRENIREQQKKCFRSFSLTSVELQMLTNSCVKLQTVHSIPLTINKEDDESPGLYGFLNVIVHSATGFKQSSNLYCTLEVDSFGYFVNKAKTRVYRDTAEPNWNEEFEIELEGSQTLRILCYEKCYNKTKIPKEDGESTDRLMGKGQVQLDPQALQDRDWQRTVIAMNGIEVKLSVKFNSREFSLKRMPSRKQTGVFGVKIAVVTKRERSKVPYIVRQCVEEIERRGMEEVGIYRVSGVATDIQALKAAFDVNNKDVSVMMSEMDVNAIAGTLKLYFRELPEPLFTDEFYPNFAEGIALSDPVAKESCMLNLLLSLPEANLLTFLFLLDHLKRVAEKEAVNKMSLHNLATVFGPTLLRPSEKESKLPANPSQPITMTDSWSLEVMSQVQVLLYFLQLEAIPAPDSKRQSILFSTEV

On to `O=C(NCCSc1ccc2c(/C=C/c3ccccn3)n[nH]c2c1)c1cccc(C(F)(F)F)c1`, for which the GI50 at 72 h in data set [1] was determined as 1500 nM. Besides, the GI50 was 2720 nM in data set [2] and 1620 nM in [3].

Take `Cc1ccc(NC(=O)CCSc2ccc3c(/C=C/c4ccccn4)n[nH]c3c2)cc1C(F)(F)F`: halving of growth in data set [1] (GI50 at 72 h) required 530 nM. The GI50 in data set [2] was determined as 160 nM; in data set [3] it was 88 nM.

Consider `O=C(CCSc1ccc2c(/C=C/c3ccccn3)n[nH]c2c1)Nc1cccc(Cl)c1`, for which the GI50 at 72 h in data set [1] came out at 9350 nM. In addition, the GI50 in [2] was 1560 nM; in data set [3], 2910 nM.

For `O=C(CCSc1ccc2c(/C=C/c3ccccn3)n[nH]c2c1)Nc1ccc(CN2CCCC2)c(C(F)(F)F)c1`, growth in data set [1] was halved (GI50 at 72 h) at 4000 nM. The GI50 was 150 nM in data set [2] and 120 nM in data set [3].

Consider `O=C(CCSc1ccc2c(/C=C/c3ccccn3)n[nH]c2c1)Nc1ccc(F)c(C(F)(F)F)c1`, for which the GI50 at 72 h in data set [1] came to 610 nM. In addition, the GI50 in data set [2] turned out to be 300 nM; in data set [3], 120 nM.

For the compound `O=C(CCSc1ccc2c(/C=C/c3ccccn3)n[nH]c2c1)NCc1cccc(C(F)(F)F)c1`, the GI50 at 72 h in data set [1] was 8030 nM. In addition, the GI50 in data set [2] came to 3390 nM; in data set [3], 7050 nM.

`CNC(=O)c1ccccc1Sc1ccc2c(/C=C/c3ccccn3)n[nH]c2c1` [AXITINIB]: the results for the GI50 at 72 h in data set [1] and in [4] were 1640 nM and more than 10000 nM, respectively. Besides, the GI50 in the data set with K562 amounted to 940 nM; in the data set on KU812 cell line it was 500 nM; with MEG-01 it was 970 nM; with MEC1 it was 1540 nM; with HL-60, 6780 nM; in the data set with OCI-AML2, 2360 nM. Also, the concentration for 50% growth inhibition (GI50) in the data set with U-937 stood at 1980 nM.

Take `O=C(NCCCSc1ccc2c(/C=C/c3ccccn3)n[nH]c2c1)c1cccc(C(F)(F)F)c1`: halving of growth in [1] (GI50 at 72 h) required 980 nM. For the same compound, the GI50 in data set [2] was found to be 500 nM; in data set [3], 650 nM.

In turn, `Cc1n[nH]c2cc(SCCC(=O)Nc3ccc(CN4CCN(C)CC4)c(C(F)(F)F)c3)ccc12` showed a GI50 at 72 h in data set [1] of 3900 nM. Further, the concentration for 50% growth inhibition (GI50) in data set [2] came to 330 nM; in data set [3], 170 nM.

`CN1CCN(Cc2ccc(NC(=O)CCSc3ccc4c(-c5cccnc5)n[nH]c4c3)cc2C(F)(F)F)CC1` returned a GI50 at 72 h in data set [1] of 2650 nM. Moreover, the 50% growth inhibitory concentration (GI50) in data set [2] came out at 70 nM; in [3] it was 58 nM.

Turning to `CN1CCN(Cc2ccc(NC(=O)CCSc3ccc4c(-c5cnn(C)c5)n[nH]c4c3)cc2C(F)(F)F)CC1`, the GI50 at 72 h in data set [1] is 1400 nM. Moreover, the concentration for 50% growth inhibition (GI50) is 15 nM in data set [2] and 20 nM in data set [3].

As to `Cc1ccc(NC(=O)c2ccc(CN3CCN(C)CC3)cc2)cc1Nc1nccc(-c2cccnc2)n1` [IMATINIB], the GI50 at 72 h in data set [1] and in [4] was more than 10000 nM in each case. Moreover, the GI50 is 250 nM with K562; 310 nM in the data set on KU812 cell line; 280 nM in the data set with MEG-01; more than 10000 nM with MEC1; more than 10000 nM with HL-60; more than 10000 nM with OCI-AML2. This compound also displayed a GI50 in the data set with U-937 of more than 10000 nM. Further, the Activity with BaF3 is on record as 3.36 g.

In data set [1], `O=C(CCSc1ccc2c(/C=C/c3ccccn3)n[nH]c2c1)Nc1cccc(C(F)(F)F)c1` came in with a GI50 at 72 h of 2300 nM. Further, the 50% growth inhibitory concentration (GI50) was found to be 900 nM in data set [2] and 280 nM in [3].

In the case of `CC1CCN(Cc2ccc(NC(=O)CCSc3ccc4c(/C=C/c5ccccn5)n[nH]c4c3)cc2C(F)(F)F)CC1`, in data set [1], halving of growth (GI50 at 72 h) required 4170 nM. Moreover, the results for the GI50 in data set [2] and in data set [3] were 1980 nM and 1750 nM, respectively.

In [1], `O=C(CCSc1ccc2c(/C=C/c3ccccn3)n[nH]c2c1)Nc1cccc(F)c1` came in with a GI50 at 72 h of 6590 nM. Besides, the concentration for 50% growth inhibition (GI50) in data set [2] turned out to be 1510 nM; in data set [3] it was 1990 nM.

In the case of `O=C(CCSc1ccc2c(/C=C/c3ccccn3)n[nH]c2c1)Nc1ccc(Cl)c(C(F)(F)F)c1`, in data set [1], the GI50 at 72 h was more than 10000 nM. The GI50 in data set [2] is 2710 nM; in data set [3], 2670 nM.

Regarding `CN1CCN(Cc2ccc(NC(=O)CCSc3ccc4c(-c5ccncc5)n[nH]c4c3)cc2C(F)(F)F)CC1`, the GI50 at 72 h in data set [1] was 1060 nM. Further, the GI50 in data set [2] is 38 nM; in data set [3], 18 nM.

The compound `CN1CCN(Cc2ccc(C(=O)NCCSc3ccc4c(/C=C/c5ccccn5)n[nH]c4c3)cc2C(F)(F)F)CC1` gave a GI50 at 72 h in data set [1] of 4800 nM. In addition, the 50% growth inhibitory concentration (GI50) in data set [2] was 750 nM; in data set [3] it was 930 nM.

On to `CNC(=O)CCSc1ccc2c(/C=C/c3ccccn3)n[nH]c2c1`, for which the 50% growth inhibitory concentration (GI50) at 72 h in data set [1] is more than 10000 nM. The GI50 in data set [2] and in [3] was more than 10000 nM each time.

For the compound `CN(C)c1cccc(NC(=O)CCSc2ccc3c(/C=C/c4ccccn4)n[nH]c3c2)c1`, in data set [1], the GI50 at 72 h is more than 10000 nM. The concentration for 50% growth inhibition (GI50) in [2] was determined as 9670 nM; in data set [3], 5520 nM.

Turning to `CN1CCN(Cc2ccc(C(=O)NCCCSc3ccc4c(/C=C/c5ccccn5)n[nH]c4c3)cc2C(F)(F)F)CC1`, it took 4400 nM to inhibit growth in data set [1] by half (GI50 at 72 h). The GI50 in [2] worked out at 22 nM; in data set [3], 330 nM.

`Cc1cccc(NC(=O)CCSc2ccc3c(/C=C/c4ccccn4)n[nH]c3c2)c1`: the GI50 at 72 h in [1] was more than 10000 nM. The GI50 was 3150 nM in data set [2] and 4030 nM in data set [3].

`Cc1ccc(NC(=O)CCSc2ccc3c(/C=C/c4ccccn4)n[nH]c3c2)cc1` had a GI50 at 72 h in data set [1] of more than 10000 nM. The GI50 in data set [2] was determined as 2870 nM; in data set [3], 4490 nM.

`CN(C)CCN(C)Cc1ccc(NC(=O)CCSc2ccc3c(/C=C/c4ccccn4)n[nH]c3c2)cc1C(F)(F)F` showed a GI50 at 72 h in data set [1] of 1850 nM. In addition, the GI50 in data set [2] and in [3] was 110 nM in each case.

Compound `COc1ccc(NC(=O)CCSc2ccc3c(/C=C/c4ccccn4)n[nH]c3c2)cc1C(F)(F)F` showed a GI50 at 72 h in [1] of more than 10000 nM. The 50% growth inhibitory concentration (GI50) in [2] was found to be 590 nM; in data set [3] it was 860 nM.

Compound `CN1CCN(Cc2ccc(NC(=O)CCSc3ccc4c(-c5ccccc5)n[nH]c4c3)cc2C(F)(F)F)CC1` registered a GI50 at 72 h in data set [1] of 600 nM. The values for the GI50 in data set [2] and in [3] were 32 nM and 110 nM, respectively.

`O=C(NCCSc1ccc2c(/C=C/c3ccccn3)n[nH]c2c1)Nc1cccc(C(F)(F)F)c1` had a GI50 at 72 h in [1] of 3000 nM. Besides, the GI50 in data set [2] was determined as 2740 nM; in data set [3] it was 2060 nM.

Compound `CN1CCN(c2cccc(NC(=O)CCSc3ccc4c(/C=C/c5ccccn5)n[nH]c4c3)c2)CC1` registered a GI50 at 72 h in data set [1] of more than 10000 nM. Moreover, the concentration for 50% growth inhibition (GI50) is 8240 nM in data set [2] and 8180 nM in [3].

In data set [1], `O=C(CCSc1ccc2c(/C=C/c3ccccn3)n[nH]c2c1)Nc1ccccc1` came in with a GI50 at 72 h of 690 nM. The 50% growth inhibitory concentration (GI50) in data set [2] stood at 500 nM; in data set [3] it was 510 nM.

Turning to `O=C(CCSc1ccc2c(/C=C/c3ccccn3)n[nH]c2c1)Nc1ccc(CN2CCOCC2)c(C(F)(F)F)c1`, halving of growth in data set [1] (GI50 at 72 h) required 3970 nM. The concentration for 50% growth inhibition (GI50) in [2] stood at 160 nM; in data set [3] it was 210 nM.

Take `CN1CCN(Cc2ccc(NC(=O)NCCSc3ccc4c(/C=C/c5ccccn5)n[nH]c4c3)cc2C(F)(F)F)CC1`: it took 3100 nM to inhibit growth in [1] by half (GI50 at 72 h). Besides, the 50% growth inhibitory concentration (GI50) worked out at 180 nM in data set [2] and 240 nM in data set [3].

In the case of `Cc1ccc(-c2n[nH]c3cc(SCCC(=O)Nc4ccc(CN5CCN(C)CC5)c(C(F)(F)F)c4)ccc23)cn1`, growth in [1] was halved (GI50 at 72 h) at 1180 nM. For the same compound, the figures for the GI50 in data set [2] and in data set [3] were 91 nM and 49 nM, respectively.

As to `COc1cccc(NC(=O)CCSc2ccc3c(/C=C/c4ccccn4)n[nH]c3c2)c1`, in data set [1], growth was halved (GI50 at 72 h) at 3840 nM. Besides, the 50% growth inhibitory concentration (GI50) in data set [2] amounted to 3220 nM; in data set [3] it was 3210 nM.

`CCN1CCN(Cc2ccc(NC(=O)CCSc3ccc4c(/C=C/c5ccccn5)n[nH]c4c3)cc2C(F)(F)F)CC1`: the GI50 at 72 h in [1] came out at 840 nM. Moreover, the RatioGI50 in data set [5] and in data set [6] was 200 each time. Besides, the GI50 in data set [2] and in [3] was 4 nM throughout.
